These results are taken from article PMC10981527 (Bioorganic & medicinal chemistry letters, 2024).

Like-named read-outs stand apart in the source and are kept apart here.

The conditions of assay [1]: observed only at high concentrations; cited from earlier work.
Another assay has as its system myeloma cells. The settings on record: cited from earlier work.
Assay [2] concerns farnesyl diphosphate synthase (FDPS). The settings on record: in words; cited from earlier work.
The target in assay [3] is T1, geranylgeranyl diphosphate synthase (GGDPS) (Homo sapiens, UniProt O95749).
T1 sequence (O95749 1-300): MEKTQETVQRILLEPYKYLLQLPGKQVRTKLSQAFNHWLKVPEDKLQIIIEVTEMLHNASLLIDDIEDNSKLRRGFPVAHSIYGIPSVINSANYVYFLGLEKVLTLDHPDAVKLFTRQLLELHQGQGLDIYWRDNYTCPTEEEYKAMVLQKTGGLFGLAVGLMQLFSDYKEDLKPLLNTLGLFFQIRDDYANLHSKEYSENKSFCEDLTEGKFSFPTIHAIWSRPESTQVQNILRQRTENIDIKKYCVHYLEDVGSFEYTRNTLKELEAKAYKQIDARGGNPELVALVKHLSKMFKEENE
Particulars: read-out: GGDPS IC50; historical control; cited from earlier work.

The next assay relates to RPMI-8226 cells. Particulars: historical control; cited from earlier work.
In assay [4] the target is T1, geranylgeranyl diphosphate synthase (GGDPS). As to the kind of experiment: Enzyme assay utilizing recombinant GGDPS. It counts as biochemical.

The IC50 is the concentration needed to halve the response being measured.

As for `CC(C)=CCC/C(C)=C/CC(C/C=C(\C)CCC=C(C)C)(P(=O)(O)O)P(=O)(O)O` [Compound 3, digeranyl bisphosphonate], the “Concentration at which cellular activity was observed” value in assay [1] is on record as ~ 10 μM.

Take `CC(C)=CCC/C(C)=C/CCn1cc(CC(P(=O)([O-])[O-])P(=O)([O-])[O-])nn1.[Na+].[Na+].[Na+].[Na+]` [Compound 5]: the “Cellular activity, lowest concentration” value in the assay on myeloma cells (myeloma cells, mixture of olefin isomers) is 30 nM. For the same compound, in assay [2], the “Specificity for GGDPS over FDPS” value is given as “high specificity”.

Take `CC(C)=CCC/C(C)=C\CCn1cc(CC(C)(P(=O)([O-])[O-])P(=O)([O-])[O-])nn1.[Na+].[Na+].[Na+].[Na+]` [Compound 6]: the “Cellular activity, lowest concentration” value in the assay on myeloma cells is reported as 20 nM. For the same compound, in assay [3], the IC50 is 125 ± 27 nM. Further, the “Cellular LEC (lowest effective concentration)” value with RPMI-8226 cells was 0.02 µM.

On to `CC(C)=CCC/C(C)=C/CCn1cc(CC(C)(P(=O)([O-])[O-])P(=O)([O-])[O-])nn1.[Na+].[Na+].[Na+].[Na+]` [Compound 7], for which the “Cellular activity, lowest concentration” value in the assay with myeloma cells is 25 nM. Moreover, the IC50 in assay [3] is 86 ± 22 nM.

For `CC(C)=CCC/C(C)=C/Cn1cc(CC(N)(P(=O)(O)O)P(=O)(O)O)nn1` [Compound 18], the “GGDPS inhibitory activity in enzyme assay” value in assay [4] is listed as “no activity”.
